Patent US8748464B2, “Use of SIRT1 activators or inhibitors to modulate an immune response” (The J. David Gladstone Institutes, priority 2008, dated 2014)

What was measured:
Jurkat T cells [1] = assay: IL-2 protein ELISA in supernatant of α-CD3-stimulated Jurkat T cells infected with EF-1α-GFP or EF-1α-Tat-GFP viruses; type: cell-based, human; details: 16 hrs
Method: Lentiviral vectors, which contained the heterologous elongation factor 1α (EF-1α) promoter driving Tat and GFP expression, were generated. High titer viral stocks were produced and used to infect Jurkat T cells. […] Infected cultures were stimulated with antibodies specific for the CD3 receptor and treated with increased concentrations of resveratrol (0.4 μM, 2 μM, and 10 μM), a known SIRT1 activator for 16 hrs. IL-2 protein was measured in the culture supernatant by ELISA assay. Following stimulation with α-CD3 antibody, IL-2 protein was superinduced ˜4-fold by wild type Tat (FIG. 8A). In cells expressing Tat, ˜2300 pg/ml of IL-2 protein was detected in response to α-CD3 treatment, whereas in control cells, only ˜600 pg/ml of IL-2 protein was induced.
The effects of small molecule of SIRT1 ([…]) on T cell hyperactivation in Tat-expressing cells were examined. Jurkat T cells were infected with EF-1α-GFP or EF-1α-Tat-GFP viruses (FIG. 8B). Infected cultures were stimulated with α-CD3 antibody and treated with SRT2183 (0.2, 1, and 5 μM) for 16 hrs.
FIGS. 8A and 8B. Resveratrol and small molecule activator of SIRT1 (SRT2183) suppresses T cell hyperactivation by Tat. (A) IL-2 protein levels measured by ELISA in the supernatant of infected cultures. 24 hrs after infection with EF1α-GFP and EF1α-Tat-GFP viruses, Jurkat T cells were stimulated with α-CD3 antibody in the presence of increased concentrations of resveratrol (0.4, 2, and 10 μM) for 16 hrs. (B) 24 hrs after infection with EF1α-GFP and EF1α-Tat-GFP viruses, Jurkat T cells were stimulated with α-CD3 antibody in the presence of increased concentrations of SRT2183 (0.2, 1, and 5 μM) for 16 hrs. IL-2 protein levels were measured by ELISA in the supernatant of infected cultures.

SIRT1 [2] = molecular target: T1, SIRT1 (Homo sapiens, UniProt Q96EB6); details: Howitz et al. 2003; Baur et al. 2006; cited from earlier work
T1 sequence (Q96EB6 1-747): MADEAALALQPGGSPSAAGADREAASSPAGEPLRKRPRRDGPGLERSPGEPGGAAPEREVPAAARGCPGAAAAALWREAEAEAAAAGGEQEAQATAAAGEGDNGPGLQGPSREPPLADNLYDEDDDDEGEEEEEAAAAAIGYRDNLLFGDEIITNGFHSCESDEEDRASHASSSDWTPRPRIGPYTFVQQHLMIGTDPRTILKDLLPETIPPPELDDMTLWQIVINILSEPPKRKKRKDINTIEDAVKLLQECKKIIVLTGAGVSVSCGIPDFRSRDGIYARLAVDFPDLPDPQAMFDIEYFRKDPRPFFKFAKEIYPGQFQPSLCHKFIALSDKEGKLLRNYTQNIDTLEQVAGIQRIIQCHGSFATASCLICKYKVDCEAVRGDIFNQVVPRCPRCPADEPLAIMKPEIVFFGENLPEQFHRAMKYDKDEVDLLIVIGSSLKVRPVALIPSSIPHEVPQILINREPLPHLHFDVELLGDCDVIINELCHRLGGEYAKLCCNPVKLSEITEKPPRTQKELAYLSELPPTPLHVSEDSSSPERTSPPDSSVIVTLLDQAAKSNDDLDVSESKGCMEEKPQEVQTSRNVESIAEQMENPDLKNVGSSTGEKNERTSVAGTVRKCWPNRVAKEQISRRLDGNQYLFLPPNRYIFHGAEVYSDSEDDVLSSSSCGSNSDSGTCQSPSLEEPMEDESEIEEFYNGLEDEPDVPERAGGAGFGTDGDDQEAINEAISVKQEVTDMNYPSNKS

[3] = test system: FLAG-FoxP3 in 293 T cells; assay: Immunoprecipitation/western blot of acetylated FLAG-FoxP3 or HA-AML1/Runx1 in 293 T cells cotransfected with p300; type: cell-based
Description: FIGS. 10A-D. SIRT1 interacts with FoxP3 and inhibition of SIRT1 deacetylase activity increases acetylation of FoxP3. (A) Communoprecipitation/western blot analysis of FLAG-tagged FoxP3 and HA-tagged SIRT1 after transfection of corresponding expression vectors or empty vector controls into 293T cells. (B) Communoprecipitation assay of SIRT1 and FoxP3 deletion mutants. A schematic summary of the binding of FoxP3 mutants to SIRT1 is shown. The forkhead box (FH) indicates the DNA binding domain ZnF, zinc finger domain; LZ, leucine zipper. […] An expression vector for the p300 acetyltransferase was cotransfected with FoxP3. (D) The same experiment as in (C) using HA-AML1/Runx1. Immunoprecipitations were performed with either anti-FLAG antibody coupled to agarose (α-FLAG agarose) (C) or anti-hemagglutinin antibody coupled to agarose (α-HA agarose) (D) and western blotting with rabbit polyclonal antibody to acetyl-lysine (α-acetyl lysine) (α-AcK), α-FLAG or α-HA antibodies.

Jurkat T cells [4] = assay: Real-time RT-PCR of IL-2 mRNA in α-CD3/28-activated Jurkat T cells; type: cell-based, human
Method: Viral supernatant containing 1500 ng of p24 was used to infect 18×10^6 JurkatT cells. Infections were carried out in 6-well plates at 2400 rpm in a Beckman-Coulter centrifuge for 2 h at 32° C. in the presence of polybrene (1 μg/ml, Sigma).
Total RNA was extracted using RNA STAT-60 reagent (Tel-Test) according to the manufacturer's instruction. The first strand cDNA was generated using 2 μg of total RNA and SuperScript reverse transcriptase (Invitrogen). […] Relative gene expression ratios between stimulated and nonstimulated conditions were calculated by the equation, ratio=2^−ΔΔCt, comparative Ct method (Applied Biosystems).
Infected cultures were activated for 2 h and 8 h with α-CD3/28 antibodies. (B) Real-time RT-PCR analysis of IL-2 mRNA levels in infected cultures 2 h after activation with α-CD3/28.

[5] = test system: FLAG-FoxP3 in 293 T cells; assay: Western blot of FLAG-FoxP3 (wild type or mutant) or FLAG-AML1/Runx1 expression in 293 T cells; type: cell-based; details: 293 T cells
Method: To determine whether the three newly identified acetylated lysine residues regulate FoxP3 stability, mutants were generated in which each of three lysine residues was substituted to arginines (KR), a conservative mutation that preserves the positive charge of the residue.
To investigate the effect of SIRT1 inhibition and the three newly identified acetylation sites on FoxP3 protein stability, wild type and 3KR mutant FoxP3 protein expression was measured after treatment with cycloheximide (CHX), a general inhibitor of protein translation.
(B) Scheme of acetylated lysine residues identified by mass spectrometry using immunoprecipitated FLAG-FoxP3 protein. The murine protein is shown.

SIRT1 [6] = molecular target: T1, SIRT1; assay: In vitro deacetylation of acetylated recombinant p65 by recombinant SIRT1, western blot α-AcK310 p65; type: biochemical; design: purchased Biomol; details: synthetic Tat 0.1 μg or nicotinamide 10 mM, preincubated 15 min; NAD 1 mM, 3 h, 37° C.
Method: Recombinant p65 protein prepared from baculovirus-infected Sf9 insect cells (BD Biosciences) was acetylated by immunoprecipitated p300 overexpressed in 293 cells as previously described (Chen et al., 2005). Acetylated p65 protein was incubated with recombinant SIRT1 (1 μg/5U; Biomol) in SIRT1 deacetylase buffer (50 mM Tris-HCl pH 9, 4 mM MgCl2, 0.2 mM DTT) in the presence of NAD (1 mM; Sigma) for 3 h at 37° C. […] Reactions were stopped by the addition of SDS loading buffer, boiled, and after brief centrifugation, analyzed by western blotting with rabbit a-AcK310 p65 (Chen et al., 2005) or mouse α-p65 antibodies (sc-8008, Santa Cruz).
Next, we examined the effect of Tat on deacetylation of p65. In vitro acetylated recombinant p65 protein was incubated with recombinant SIRT1 and synthetic Tat proteins. The extent of deacetylation was determined by western blotting with antibody specific for acetylated K310 in p65 (α-AcK310 p65). […]
FIGS. 5A-D. Tat inhibits the SIRT1 deacetylase activity (A) In vitro deacetylation assay of recombinant SIRT1 in the presence of synthetic Tat (aa 1-72). The rate of 1 μM SIRT1 was calculated for 200 μM fluorogenic deacetylase substrate (aa 379-382 of p53) in the presence of twelve concentrations of synthetic Tat. […] Total cell lysates were analyzed by western blotting with α-AcK310 p65 or α-T7 antibodies. […]

| Compound | ability of Tat to superinduce IL-2 production (Jurkat T cells [1]; 10 μM) | superinduction of IL-2 protein in Tat-expressing cells (Jurkat T cells [1]; 0.4, 2 and 10 μM) | activation of SIRT1 enzymatic activity (SIRT1 [2]) | acetylation levels of FoxP3 [3] | acetylation of AML1/Runx1 [3] | effect of combination with Tat on IL-2 expression (Jurkat T cells [4]) | IL-2 mRNA levels (Jurkat T cells [4]; noninfected Jurkat T cells, nicotinamide 10 mM 1 h before α-CD3/28) | FoxP3 mRNA levels [5] | FoxP3 protein expression ([5]; nicotinamide 5 mM, Ex-527 50 μM or TSA 400 nM, 16 hours) | deacetylation of p65 (K310) by SIRT1 (SIRT1 [6]) |
| --- | --- | --- | --- | --- | --- | --- | --- | --- | --- | --- |
| Oc1ccc(/C=C/c2cc(O)cc(O)c2)cc1 [resveratrol] | completely impaired | abolished by resveratrol in a concentration dependent manner | (weak) reversible activator |  |  |  |  |  |  |  |
| NC(=O)c1cccnc1 [nicotinamide] |  |  |  | increased acetylation levels of FoxP3 | increased to the same extent | no additive effect | superinduced IL-2 mRNA to similar levels as Tat | No effect | upregulation of protein expression | same inhibition of p65 deacetylation |
